ChEMBL document CHEMBL3044601, “Movento®, an innovative ambimobile insecticide for sucking insect pest control in agriculture: Biological profile and field performance” (Crop Prot, 2009)
Values after ≈ are worked out from the molar mass of the structure shown.

Columns and labels:
Bemisia tabaci [1] = assay: Resistance ratio, LC50 for second instar nymph of organophosphates, pyrethroids, buprofezin, pyriproxyfen and pymetrozin-resistant Bemisia tabaci BR-JM03 (sweet potato whitefly) to LC50 for second instar nymph of Bemisia tabaci SUD-S; type: functional
Bemisia tabaci [2] = assay: Resistance ratio, LC50 for second instar nymph of organophosphates-resistant Bemisia tabaci ISR-02 (sweet potato whitefly) to LC50 for second instar nymph of Bemisia tabaci SUD-S; type: functional
Myzus persicae [3] = assay: Insecticidal activity against Myzus persicae (green peach aphid) infected first leaf of cabbage plant assessed as phloem-systemic efficacy at 4 ug/plant treated with 2 g/L rapeseed oil methylester measured after 7 days on 3rd leaf by phloem mobility bioassay; type: functional
Myzus persicae [4] = assay: Insecticidal activity against Myzus persicae (green peach aphid) infected first leaf of cabbage plant assessed as phloem-systemic efficacy at 0.8 ug/plant treated with 2 g/L rapeseed oil methylester measured after 7 days on 3rd leaf by phloem mobility bioassay; type: functional
Bemisia tabaci [5] = assay: Resistance ratio, LC50 for second instar nymph of organophosphates-resistant Bemisia tabaci CRE04-01 (sweet potato whitefly) to LC50 for second instar nymph of Bemisia tabaci SUD-S; type: functional
Myzus persicae [6] = assay: Insecticidal activity against third-instar nymph of carbamates, pyrethroids-resistant Myzus persicae F04-01 (green peach aphid) in Brassica oleracea leaf disc after 3 days by leaf-dip bioassay; type: functional; conditions: F04-01, foliar, 72 h
[7] = Lipophilicity, log P of the compound; type: physicochemical; conditions: octanol/water
Bemisia tabaci [8] = assay: Insecticidal activity against second instar nymph of organophosphates-resistant Bemisia tabaci ISR-02 (sweet potato whitefly) in cotton plant leaf after 10 days by leaf-dip bioassay; type: functional; conditions: ISR-02, 240 h
Myzus persicae [9] = assay: Insecticidal activity against third-instar nymph of Myzus persicae NS (green peach aphid) in Brassica oleracea leaf disc after 3 days by leaf-dip bioassay; type: functional; conditions: foliar, 72 h
Myzus persicae [10] = assay: Insecticidal activity against third-instar nymph of carbamates, pyrethroids-resistant Myzus persicae JR (green peach aphid) in Brassica oleracea leaf disc after 3 days by leaf-dip bioassay; type: functional; conditions: foliar, 72 h
Bemisia tabaci [11] = assay: Insecticidal activity against second instar nymph of organophosphates, pyrethroids, buprofezin, pyriproxyfen and pymetrozin-resistant Bemisia tabaci BR-JM03 (sweet potato whitefly) in cotton plant leaf after 10 days by leaf-dip bioassay; type: functional; conditions: BR-JM03, 240 h
Myzus persicae [12] = assay: Insecticidal activity against Myzus persicae (green peach aphid) infected first leaf of cabbage plant assessed as phloem-systemic efficacy at 100 ug/plant treated with 2 g/L rapeseed oil methylester measured after 7 days on 3rd leaf by phloem mobility bioassay; type: functional
Bemisia tabaci [13] = assay: Insecticidal activity against second instar nymph of Bemisia tabaci SUD-S (sweet potato whitefly) in cotton plant leaf after 10 days by leaf-dip bioassay; type: functional; conditions: 240 h
Myzus persicae [14] = assay: Insecticidal activity against Myzus persicae (green peach aphid) infected first leaf of cabbage plant assessed as phloem-systemic efficacy at 0.16 ug/plant treated with 2 g/L rapeseed oil methylester measured after 7 days on 3rd leaf by phloem mobility bioassay; type: functional
Bemisia tabaci [15] = assay: Insecticidal activity against second instar nymph of organophosphates-resistant Bemisia tabaci CRE04-01 (sweet potato whitefly) in cotton plant leaf after 10 days by leaf-dip bioassay; type: functional; conditions: CRE04-01, 240 h
Bemisia tabaci [16] = assay: Insecticidal activity against second instar nymph of organophosphates-resistant Bemisia tabaci MEX03-02 (sweet potato whitefly) in cotton plant leaf after 10 days by leaf-dip bioassay; type: functional; conditions: MEX03-02, 240 h
Myzus persicae [17] = assay: Resistance ratio, LC50 for third instar nymph of carbamates, pyrethroids-resistant Myzus persicae JR (green peach aphid) to LC50 for third instar nymph of Myzus persicae NS; type: functional
Myzus persicae [18] = assay: Insecticidal activity against first instar nymph of Myzus persicae (green peach aphid) in Brassica oleracea leaf disc treated with 1 g/L rapeseed oil methylester after 3 days by leaf-dip bioassay; type: functional
Bemisia tabaci [19] = assay: Resistance ratio, LC50 for second instar nymph of organophosphates-resistant Bemisia tabaci MEX03-02 (sweet potato whitefly) to LC50 for second instar nymph of Bemisia tabaci SUD-S; type: functional
[20] = Dissociation constant, pKa of the compound; type: physicochemical
Myzus persicae [21] = assay: Insecticidal activity against Myzus persicae (green peach aphid) infected first leaf of cabbage plant assessed as phloem-systemic efficacy at 20 ug/plant treated with 2 g/L rapeseed oil methylester measured after 7 days on 3rd leaf by phloem mobility bioassay; type: functional
Myzus persicae [22] = assay: Insecticidal activity against Myzus persicae (green peach aphid) infected first leaf of cabbage plant assessed as phloem-systemic efficacy at 0.032 ug/plant treated with 2 g/L rapeseed oil methylester measured after 7 days on 3rd leaf by phloem mobility bioassay; type: functional
Myzus persicae [23] = assay: Insecticidal activity against adult Myzus persicae (green peach aphid) in Brassica oleracea leaf disc treated with 1 g/L rapeseed oil methylester after 3 days by leaf-dip bioassay; type: functional
Bemisia tabaci [24] = assay: Resistance ratio, LC50 for second instar nymph of organophosphates-resistant Bemisia tabaci ESP-00 (sweet potato whitefly) to LC50 for second instar nymph of Bemisia tabaci SUD-S; type: functional
Myzus persicae [25] = assay: Resistance ratio, LC50 for third instar nymph of carbamates, pyrethroids-resistant Myzus persicae F04-01 (green peach aphid) to LC50 for third instar nymph of Myzus persicae NS; type: functional
Bemisia tabaci [26] = assay: Insecticidal activity against second instar nymph of organophosphates-resistant Bemisia tabaci ESP-00 (sweet potato whitefly) in cotton plant leaf after 10 days by leaf-dip bioassay; type: functional; conditions: ESP-00, 240 h

CCOC(=O)OC1=C(c2cc(C)ccc2C)C(=O)N[C@]12CC[C@@H](OC)CC2 [SPIROTETRAMAT]
RatioLC50 (Bemisia tabaci [1]): 2.5 | RatioLC50 (Bemisia tabaci [2]): 2.8 | Efficacy (Myzus persicae [3]): 85.6% | Efficacy (Myzus persicae [4]): 56.7% | RatioLC50 (Bemisia tabaci [5]): 3.8 | LC50 (Myzus persicae [6]): 0.27 µg/mL (≈ 0.723 µM) | logP [7]: 0.3 | LC50 (Bemisia tabaci [8]): 0.72 µg/mL (≈ 1.93 µM) | LC50 (Myzus persicae [9]): 0.69 µg/mL (≈ 1.85 µM) | LC50 (Myzus persicae [10]): 0.59 µg/mL (≈ 1.58 µM) | LC50 (Bemisia tabaci [11]): 0.64 µg/mL (≈ 1.71 µM) | Efficacy (Myzus persicae [12]): 100% | LC50 (Bemisia tabaci [13]): 0.26 µg/mL (≈ 0.696 µM) | Efficacy (Myzus persicae [14]): 22.5% | LC50 (Bemisia tabaci [15]): 1 µg/mL (≈ 2.68 µM) | LC50 (Bemisia tabaci [16]): 0.49 µg/mL (≈ 1.31 µM) | RatioLC50 (Myzus persicae [17]): 0.9 | LC95 (Myzus persicae [18]): 0.73 ppm | RatioLC50 (Bemisia tabaci [19]): 1.9 | pKa [20]: 5.2 | Efficacy (Myzus persicae [21]): 100% | Efficacy (Myzus persicae [22]): 8.8% | LC95 (Myzus persicae [23]): 22 ppm | RatioLC50 (Bemisia tabaci [24]): 2.8 | RatioLC50 (Myzus persicae [25]): 0.4 | LC50 (Bemisia tabaci [26]): 0.74 µg/mL (≈ 1.98 µM)
